Laboratory results from ChEMBL document CHEMBL4177670, “Potential antimicrobial agents from triazole-functionalized 2H-benzo[b][1,4]oxazin-3(4H)-ones” (2017).
In brackets after ≈: the same amount, converted by molar mass.

Columns and labels:
Escherichia coli [1] = assay: Antibacterial activity against Escherichia coli MTCC 739 after 24 hrs by agar well diffusion method; type: functional; details: MTCC 739, 24 h
Staphylococcus aureus [2] = assay: Bactericidal activity against Staphylococcus aureus MLS-16 MTCC 2940 measured after 24 hrs; type: functional; details: MLS-16 MTCC 2940, 24 h
Staphylococcus aureus [3] = assay: Antibacterial activity against Staphylococcus aureus MLS-16 MTCC 2940 after 24 hrs by agar well diffusion method; type: functional; details: MLS-16 MTCC 2940, 24 h
Escherichia coli [4] = assay: Bactericidal activity against Escherichia coli MTCC 739 measured after 24 hrs; type: functional; details: MTCC 739, 24 h
Raoultella planticola [5] = assay: Bactericidal activity against Klebsiella planticola MTCC 530 measured after 24 hrs; type: functional; details: MTCC 530, 24 h
Candida albicans [6] = assay: Fungicidal activity against Candida albicans MTCC 3017 measured after 24 hrs; type: functional; details: MTCC 3017, 24 h
Raoultella planticola [7] = assay: Antibacterial activity against Klebsiella planticola MTCC 530 after 24 hrs by agar well diffusion method; type: functional; details: MTCC 530, 24 h
Candida albicans [8] = assay: Antifungal activity against Candida albicans MTCC 3017; type: functional
Micrococcus luteus [9] = assay: Bactericidal activity against Micrococcus luteus MTCC 2470 measured after 24 hrs; type: functional; details: MTCC 2470, 24 h
Bacillus subtilis [10] = assay: Antibacterial activity against Bacillus subtilis MTCC 121 after 24 hrs by agar well diffusion method; type: functional; details: MTCC 121, 24 h
Staphylococcus aureus [11] = assay: Bactericidal activity against Staphylococcus aureus MTCC 96 measured after 24 hrs; type: functional; details: MTCC 96, 24 h
Micrococcus luteus [12] = assay: Antibacterial activity against Micrococcus luteus MTCC 2470 after 24 hrs by agar well diffusion method; type: functional; details: MTCC 2470, 24 h
Bacillus subtilis [13] = assay: Bactericidal activity against Bacillus subtilis MTCC 121 measured after 24 hrs; type: functional; details: MTCC 121, 24 h
Staphylococcus aureus [14] = assay: Antibacterial activity against Staphylococcus aureus MTCC 96 after 24 hrs by agar well diffusion method; type: functional; details: MTCC 96, 24 h
Pseudomonas aeruginosa = assay: microbe, parasite or virus in culture; details: MTCC 2453, 24 h
Description: Bactericidal activity against Pseudomonas aeruginosa MTCC 2453 measured after 24 hrs

Row | SMILES | MIC (Escherichia coli [1]) | MBC (Staphylococcus aureus [2]) | MIC (Staphylococcus aureus [3]) | MBC (Escherichia coli [4]) | MBC (Raoultella planticola [5]) | MFC (Candida albicans [6]) | MIC (Raoultella planticola [7]) | MIC (Candida albicans [8]) | MBC (Micrococcus luteus [9]) | MIC (Bacillus subtilis [10]) | MBC (Staphylococcus aureus [11]) | MIC (Micrococcus luteus [12]) | MBC (Bacillus subtilis [13]) | MIC (Staphylococcus aureus [14]) | MBC (Pseudomonas aeruginosa)
1 | O=C1COc2ccccc2N1Cc1cn(Cc2ccccc2)nn1 | 3.9 µg/mL (≈ 12.2 µM) | 3.9 µg/mL (≈ 12.2 µM) | 1.9 µg/mL (≈ 5.93 µM) | 7.8 µg/mL (≈ 24.3 µM) | – | – | – | – | – | – | – | – | – | – | –
2 | Cc1ccc(-n2cc(CN3C(=O)COc4ccccc43)nn2)cc1 | 3.9 µg/mL (≈ 12.2 µM) | 7.8 µg/mL (≈ 24.3 µM) | 3.9 µg/mL (≈ 12.2 µM) | 7.8 µg/mL (≈ 24.3 µM) | 7.8 µg/mL (≈ 24.3 µM) | 15.6 µg/mL (≈ 48.7 µM) | 3.9 µg/mL (≈ 12.2 µM) | 7.8 µg/mL (≈ 24.3 µM) | – | – | – | – | – | – | –
3 | O=C1COc2ccccc2N1Cc1cn(-c2ccc(Cl)cc2)nn1 | – | – | – | – | – | 15.6 µg/mL (≈ 45.8 µM) | – | 7.8 µg/mL (≈ 22.9 µM) | – | – | – | – | – | – | –
4 | COc1ccc(-n2cc(CN3C(=O)COc4ccccc43)nn2)cc1 | 7.8 µg/mL (≈ 23.2 µM) | – | – | 15.6 µg/mL (≈ 46.4 µM) | – | 7.8 µg/mL (≈ 23.2 µM) | – | 3.9 µg/mL (≈ 11.6 µM) | – | – | – | – | – | – | –
5 | Cc1ccc(-n2cc(CN3C(=O)COc4ccc(Cl)cc43)nn2)cc1 | – | 3.9 µg/mL (≈ 11 µM) | 1.9 µg/mL (≈ 5.36 µM) | – | 7.8 µg/mL (≈ 22 µM) | 15.6 µg/mL (≈ 44 µM) | 3.9 µg/mL (≈ 11 µM) | 7.8 µg/mL (≈ 22 µM) | 3.9 µg/mL (≈ 11 µM) | 1.9 µg/mL (≈ 5.36 µM) | 3.9 µg/mL (≈ 11 µM) | 1.9 µg/mL (≈ 5.36 µM) | 3.9 µg/mL (≈ 11 µM) | 1.9 µg/mL (≈ 5.36 µM) | –
6 | O=C1COc2ccc(Cl)cc2N1Cc1cn(-c2ccc(F)cc2)nn1 | 3.9 µg/mL (≈ 10.9 µM) | 3.9 µg/mL (≈ 10.9 µM) | 1.9 µg/mL (≈ 5.3 µM) | 7.8 µg/mL (≈ 21.7 µM) | 7.8 µg/mL (≈ 21.7 µM) | 15.6 µg/mL (≈ 43.5 µM) | 3.9 µg/mL (≈ 10.9 µM) | 7.8 µg/mL (≈ 21.7 µM) | 3.9 µg/mL (≈ 10.9 µM) | 1.9 µg/mL (≈ 5.3 µM) | 7.8 µg/mL (≈ 21.7 µM) | 1.9 µg/mL (≈ 5.3 µM) | 3.9 µg/mL (≈ 10.9 µM) | 3.9 µg/mL (≈ 10.9 µM) | –
7 | O=C(O)c1cn(C2CC2)c2cc(N3CCNCC3)c(F)cc2c1=O [CIPROFLOXACIN] | 0.9 µg/mL (≈ 2.72 µM) | 0.9 µg/mL (≈ 2.72 µM) | 0.9 µg/mL (≈ 2.72 µM) | 0.9 µg/mL (≈ 2.72 µM) | 0.9 µg/mL (≈ 2.72 µM) | – | 0.9 µg/mL (≈ 2.72 µM) | – | 0.9 µg/mL (≈ 2.72 µM) | 0.9 µg/mL (≈ 2.72 µM) | 0.9 µg/mL (≈ 2.72 µM) | 0.9 µg/mL (≈ 2.72 µM) | 0.9 µg/mL (≈ 2.72 µM) | 0.9 µg/mL (≈ 2.72 µM) | 0.9 µg/mL (≈ 2.72 µM)
8 | O=C1COc2ccc(Cl)cc2N1Cc1cn(Cc2ccccc2)nn1 | – | – | – | – | – | 15.6 µg/mL (≈ 44 µM) | – | 7.8 µg/mL (≈ 22 µM) | – | – | – | – | – | – | –
9 | O=C1COc2ccccc2N1Cc1cn(-c2ccc(F)cc2)nn1 | 7.8 µg/mL (≈ 24.1 µM) | – | – | 15.6 µg/mL (≈ 48.1 µM) | – | 7.8 µg/mL (≈ 24.1 µM) | – | 3.9 µg/mL (≈ 12 µM) | – | – | – | – | – | – | –
10 | Clc1ccc(COC(Cn2ccnc2)c2ccc(Cl)cc2Cl)c(Cl)c1 (centres undefined) [MICONAZOLE] | – | – | – | – | – | 7.8 µg/mL (≈ 18.7 µM) | – | 7.8 µg/mL (≈ 18.7 µM) | – | – | – | – | – | – | –
11 | O=C1COc2ccc(Cl)cc2N1Cc1cn(-c2ccc([N+](=O)[O-])cc2)nn1 | – | – | – | – | – | 15.6 µg/mL (≈ 40.4 µM) | – | 7.8 µg/mL (≈ 20.2 µM) | – | – | – | – | – | – | –
12 | Cc1ccccc1-n1cc(CN2C(=O)COc3ccccc32)nn1 | 3.9 µg/mL (≈ 12.2 µM) | 7.8 µg/mL (≈ 24.3 µM) | 3.9 µg/mL (≈ 12.2 µM) | 7.8 µg/mL (≈ 24.3 µM) | 7.8 µg/mL (≈ 24.3 µM) | 15.6 µg/mL (≈ 48.7 µM) | 3.9 µg/mL (≈ 12.2 µM) | 7.8 µg/mL (≈ 24.3 µM) | – | – | – | – | – | – | –
13 | COc1ccc(-n2cc(CN3C(=O)COc4ccc(Cl)cc43)nn2)cc1 | – | 3.9 µg/mL (≈ 10.5 µM) | 1.9 µg/mL (≈ 5.12 µM) | – | – | 15.6 µg/mL (≈ 42.1 µM) | – | 7.8 µg/mL (≈ 21 µM) | – | – | – | – | – | – | –
14 | O=C1COc2ccccc2N1Cc1cn(-c2ccccc2)nn1 | – | – | – | – | 7.8 µg/mL (≈ 25.5 µM) | – | 3.9 µg/mL (≈ 12.7 µM) | – | – | – | 7.8 µg/mL (≈ 25.5 µM) | – | – | 3.9 µg/mL (≈ 12.7 µM) | –
15 | Cc1ccccc1-n1cc(CN2C(=O)COc3ccc(Cl)cc32)nn1 | 3.9 µg/mL (≈ 11 µM) | 3.9 µg/mL (≈ 11 µM) | 1.9 µg/mL (≈ 5.36 µM) | 7.8 µg/mL (≈ 22 µM) | 7.8 µg/mL (≈ 22 µM) | 15.6 µg/mL (≈ 44 µM) | 3.9 µg/mL (≈ 11 µM) | 7.8 µg/mL (≈ 22 µM) | 3.9 µg/mL (≈ 11 µM) | 1.9 µg/mL (≈ 5.36 µM) | 3.9 µg/mL (≈ 11 µM) | 1.9 µg/mL (≈ 5.36 µM) | 3.9 µg/mL (≈ 11 µM) | 1.9 µg/mL (≈ 5.36 µM) | –
16 | O=C1COc2ccccc2N1Cc1cn(-c2ccc([N+](=O)[O-])cc2)nn1 | – | – | – | – | – | 31.2 µg/mL (≈ 88.8 µM) | – | 15.6 µg/mL (≈ 44.4 µM) | – | – | – | – | – | – | –
